Laboratory results reported in PubChem BioAssay (NCI).
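1) Cells in 96-well plates. 2) Compound, 48 h, 5 concentrations. 3) Linear interpolation between surrounding doses. 4) Unreached endpoint = highest concentration. GI50 is the concentration that inhibits growth by half. TGI: concentration producing complete growth inhibition.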

Experiments:
Assay in all cases: DTP human tumour cell line panel, 48 h
HCT-15 colon = system: HCT-15 colon
T-47D breast = system: T-47D breast
RXF 393 renal = system: RXF 393 renal
HOP-62 NSCLC = system: HOP-62 NSCLC
MOLT-4 leukemia = system: MOLT-4 leukemia
HCT-116 colon = system: HCT-116 colon
HL-60(TB) leukemia = system: HL-60(TB) leukemia
KM12 colon = system: KM12 colon
786-0 renal = system: 786-0 renal
MDA-MB-435 = system: MDA-MB-435
SF-268 CNS = system: SF-268 CNS
M14 melanoma = system: M14 melanoma
UACC-257 melanoma = system: UACC-257 melanoma
OVCAR-5 ovarian = system: OVCAR-5 ovarian
COLO 205 colon = system: COLO 205 colon
ACHN renal = system: ACHN renal
NCI-H460 lung = system: NCI-H460 lung
SN12C renal = system: SN12C renal
MCF7 breast = system: MCF7 breast
PC-3 prostate = system: PC-3 prostate
K-562 leukemia = system: K-562 leukemia
A549 NSCLC = system: A549 NSCLC
MDA-MB-231 breast = system: MDA-MB-231 breast
SNB-75 CNS = system: SNB-75 CNS
CCRF-CEM leukemia = system: CCRF-CEM leukemia
A498 renal = system: A498 renal
CAKI-1 renal = system: CAKI-1 renal
HS 578T breast = system: HS 578T breast
OVCAR-4 ovarian = system: OVCAR-4 ovarian
SK-MEL-28 melanoma = system: SK-MEL-28 melanoma
U251 CNS = system: U251 CNS
NCI/ADR-RES ovarian = system: NCI/ADR-RES ovarian
SK-OV-3 ovarian = system: SK-OV-3 ovarian
SNB-19 CNS = system: SNB-19 CNS
SK-MEL-5 melanoma = system: SK-MEL-5 melanoma
EKVX NSCLC = system: EKVX NSCLC
TK-10 renal = system: TK-10 renal
UACC-62 melanoma = system: UACC-62 melanoma
SF-295 CNS = system: SF-295 CNS
SK-MEL-2 melanoma = system: SK-MEL-2 melanoma
SF-539 CNS = system: SF-539 CNS
NCI-H226 lung = system: NCI-H226 lung
HOP-92 NSCLC = system: HOP-92 NSCLC
IGROV1 ovarian = system: IGROV1 ovarian
NCI-H23 lung = system: NCI-H23 lung
UO-31 renal = system: UO-31 renal
OVCAR-8 ovarian = system: OVCAR-8 ovarian
DU-145 prostate = system: DU-145 prostate
HCC-2998 colon = system: HCC-2998 colon
RPMI-8226 leukemia = system: RPMI-8226 leukemia
NCI-H522 lung = system: NCI-H522 lung
BT-549 breast = system: BT-549 breast
OVCAR-3 ovarian = system: OVCAR-3 ovarian
SR leukemia = system: SR leukemia
SW-620 colon = system: SW-620 colon
HT29 colon = system: HT29 colon
LOX IMVI melanoma = system: LOX IMVI melanoma

**Q.** What does the source list for `O=C1Nc2cc([N+](=O)[O-])ccc2C(=O)N2CCC[C@@H]12`?
**A.** TGI (HCT-15 colon): > 100 µM; TGI (T-47D breast): > 100 µM; TGI (RXF 393 renal): > 100 µM; TGI (HOP-62 NSCLC): > 100 µM; TGI (MOLT-4 leukemia): > 100 µM; TGI (HCT-116 colon): > 100 µM; TGI (HL-60(TB) leukemia): > 100 µM; TGI (KM12 colon): > 100 µM; TGI (786-0 renal): > 100 µM; TGI (MDA-MB-435): > 100 µM; TGI (SF-268 CNS): > 100 µM; TGI (M14 melanoma): > 100 µM; TGI (UACC-257 melanoma): > 100 µM; TGI (OVCAR-5 ovarian): > 100 µM; TGI (COLO 205 colon): > 100 µM; TGI (ACHN renal): > 100 µM; TGI (NCI-H460 lung): > 100 µM; TGI (SN12C renal): > 100 µM; TGI (MCF7 breast): > 100 µM; TGI (PC-3 prostate): > 100 µM; TGI (K-562 leukemia): > 100 µM; TGI (A549 NSCLC): > 100 µM; TGI (MDA-MB-231 breast): > 100 µM; TGI (SNB-75 CNS): > 100 µM; TGI (CCRF-CEM leukemia): > 100 µM; TGI (A498 renal): > 100 µM; TGI (CAKI-1 renal): > 100 µM; TGI (HS 578T breast): > 100 µM; TGI (OVCAR-4 ovarian): > 100 µM; TGI (SK-MEL-28 melanoma): > 100 µM; TGI (U251 CNS): > 100 µM; TGI (NCI/ADR-RES ovarian): > 100 µM; TGI (SK-OV-3 ovarian): > 100 µM; TGI (SNB-19 CNS): > 100 µM; TGI (SK-MEL-5 melanoma): > 100 µM; TGI (EKVX NSCLC): > 100 µM; TGI (TK-10 renal): > 100 µM; TGI (UACC-62 melanoma): > 100 µM; TGI (SF-295 CNS): > 100 µM; TGI (SK-MEL-2 melanoma): > 100 µM; TGI (SF-539 CNS): > 100 µM; TGI (NCI-H226 lung): > 100 µM; TGI (HOP-92 NSCLC): > 100 µM; TGI (IGROV1 ovarian): > 100 µM; TGI (NCI-H23 lung): > 100 µM; TGI (UO-31 renal): > 100 µM; TGI (OVCAR-8 ovarian): > 100 µM; TGI (DU-145 prostate): > 100 µM; TGI (HCC-2998 colon): > 100 µM; TGI (RPMI-8226 leukemia): > 100 µM; TGI (NCI-H522 lung): > 100 µM; TGI (BT-549 breast): > 100 µM; TGI (OVCAR-3 ovarian): > 100 µM; TGI (SR leukemia): > 100 µM; TGI (SW-620 colon): > 100 µM; TGI (HT29 colon): > 100 µM; TGI (LOX IMVI melanoma): > 100 µM

**Q.** What does the source list for `C/C1=C\C/C=C(\C)[C@H]2CC(CC/C(C)=C/CC1)[C@@](C)(CO)O2`?
**A.** GI50 (HCT-15 colon): > 100 µM; TGI (HCT-15 colon): > 100 µM; GI50 (T-47D breast): > 100 µM; TGI (T-47D breast): > 100 µM; GI50 (RXF 393 renal): > 100 µM; TGI (RXF 393 renal): > 100 µM; GI50 (HOP-62 NSCLC): 47.6 µM; TGI (HOP-62 NSCLC): > 100 µM; GI50 (MOLT-4 leukemia): 23.5 µM; TGI (MOLT-4 leukemia): > 100 µM; GI50 (HCT-116 colon): 44.5 µM; TGI (HCT-116 colon): > 100 µM; GI50 (HL-60(TB) leukemia): 16.8 µM; TGI (HL-60(TB) leukemia): 51.1 µM; GI50 (KM12 colon): 62.7 µM; TGI (KM12 colon): > 100 µM; GI50 (786-0 renal): > 100 µM; TGI (786-0 renal): > 100 µM; GI50 (MDA-MB-435): > 100 µM; TGI (MDA-MB-435): > 100 µM; GI50 (SF-268 CNS): 80.6 µM; TGI (SF-268 CNS): > 100 µM; GI50 (M14 melanoma): 71.7 µM; TGI (M14 melanoma): > 100 µM; GI50 (UACC-257 melanoma): > 100 µM; TGI (UACC-257 melanoma): > 100 µM; GI50 (OVCAR-5 ovarian): > 100 µM; TGI (OVCAR-5 ovarian): > 100 µM; GI50 (COLO 205 colon): > 100 µM; TGI (COLO 205 colon): > 100 µM; GI50 (ACHN renal): > 100 µM; TGI (ACHN renal): > 100 µM; GI50 (NCI-H460 lung): 74.4 µM; TGI (NCI-H460 lung): > 100 µM; GI50 (SN12C renal): 16.3 µM; TGI (SN12C renal): > 100 µM; GI50 (MCF7 breast): 26.7 µM; TGI (MCF7 breast): 77.7 µM; GI50 (PC-3 prostate): 68.5 µM; TGI (PC-3 prostate): > 100 µM; GI50 (K-562 leukemia): 28.4 µM; TGI (K-562 leukemia): > 100 µM; GI50 (A549 NSCLC): > 100 µM; TGI (A549 NSCLC): > 100 µM; GI50 (MDA-MB-231 breast): 54.9 µM; TGI (MDA-MB-231 breast): > 100 µM; GI50 (SNB-75 CNS): > 100 µM; TGI (SNB-75 CNS): > 100 µM; GI50 (CCRF-CEM leukemia): 72.8 µM; TGI (CCRF-CEM leukemia): > 100 µM; GI50 (A498 renal): 54.1 µM; TGI (A498 renal): > 100 µM; GI50 (CAKI-1 renal): 44.9 µM; TGI (CAKI-1 renal): > 100 µM; GI50 (HS 578T breast): > 100 µM; TGI (HS 578T breast): > 100 µM; GI50 (OVCAR-4 ovarian): > 100 µM; TGI (OVCAR-4 ovarian): > 100 µM; GI50 (SK-MEL-28 melanoma): > 100 µM; TGI (SK-MEL-28 melanoma): > 100 µM; GI50 (U251 CNS): 84.2 µM; TGI (U251 CNS): > 100 µM; GI50 (NCI/ADR-RES ovarian): > 100 µM; TGI (NCI/ADR-RES ovarian): > 100 µM; GI50 (SK-OV-3 ovarian): > 100 µM; TGI (SK-OV-3 ovarian): > 100 µM; GI50 (SNB-19 CNS): > 100 µM; TGI (SNB-19 CNS): > 100 µM; GI50 (SK-MEL-5 melanoma): 87.3 µM; TGI (SK-MEL-5 melanoma): > 100 µM; GI50 (EKVX NSCLC): > 100 µM; TGI (EKVX NSCLC): > 100 µM; GI50 (UACC-62 melanoma): 69.2 µM; TGI (UACC-62 melanoma): > 100 µM; GI50 (SF-295 CNS): 59.3 µM; TGI (SF-295 CNS): > 100 µM; GI50 (SK-MEL-2 melanoma): 44.9 µM; TGI (SK-MEL-2 melanoma): > 100 µM; GI50 (SF-539 CNS): > 100 µM; TGI (SF-539 CNS): > 100 µM; GI50 (NCI-H226 lung): > 100 µM; TGI (NCI-H226 lung): > 100 µM; GI50 (HOP-92 NSCLC): 36.3 µM; TGI (HOP-92 NSCLC): > 100 µM; GI50 (IGROV1 ovarian): 16 µM; TGI (IGROV1 ovarian): 56.5 µM; GI50 (NCI-H23 lung): > 100 µM; TGI (NCI-H23 lung): > 100 µM; GI50 (UO-31 renal): 21.7 µM; TGI (UO-31 renal): 89.9 µM; GI50 (OVCAR-8 ovarian): > 100 µM; TGI (OVCAR-8 ovarian): > 100 µM; GI50 (DU-145 prostate): > 100 µM; TGI (DU-145 prostate): > 100 µM; GI50 (HCC-2998 colon): > 100 µM; TGI (HCC-2998 colon): > 100 µM; GI50 (RPMI-8226 leukemia): 40.6 µM; TGI (RPMI-8226 leukemia): > 100 µM; GI50 (NCI-H522 lung): 23.3 µM; TGI (NCI-H522 lung): > 100 µM; GI50 (BT-549 breast): > 100 µM; TGI (BT-549 breast): > 100 µM; GI50 (OVCAR-3 ovarian): > 100 µM; TGI (OVCAR-3 ovarian): > 100 µM; GI50 (SR leukemia): 14.6 µM; TGI (SR leukemia): 43.8 µM; GI50 (SW-620 colon): 52.9 µM; TGI (SW-620 colon): > 100 µM; GI50 (HT29 colon): > 100 µM; TGI (HT29 colon): > 100 µM; GI50 (LOX IMVI melanoma): 23.3 µM; TGI (LOX IMVI melanoma): 54 µM
